Measurements published in PubChem BioAssay (NCI).
Values joined by “and” are separate entries in the source; they are usually repeats but may differ in a detail not shown here. Identical values can stand only once.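 Method: 48-hour compound exposure of cells in 96-well plates, five concentrations, linear interpolation of endpoints. GI50: concentration for 50% inhibition of growth. Definition used: TGI = concentration required for complete inhibition of growth.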

Experiments:
Experiment in all cases: DTP human tumour cell line panel, 48 h
SK-MEL-5 melanoma = tested on: SK-MEL-5 melanoma
T-47D breast = tested on: T-47D breast
MDA-MB-435 = tested on: MDA-MB-435
UO-31 renal = tested on: UO-31 renal
CAKI-1 renal = tested on: CAKI-1 renal
UACC-257 melanoma = tested on: UACC-257 melanoma
HOP-92 NSCLC = tested on: HOP-92 NSCLC
OVCAR-8 ovarian = tested on: OVCAR-8 ovarian
NCI-H522 lung = tested on: NCI-H522 lung
U251 CNS = tested on: U251 CNS
HOP-62 NSCLC = tested on: HOP-62 NSCLC
OVCAR-4 ovarian = tested on: OVCAR-4 ovarian
SK-OV-3 ovarian = tested on: SK-OV-3 ovarian
HCC-2998 colon = tested on: HCC-2998 colon
SK-MEL-28 melanoma = tested on: SK-MEL-28 melanoma
CCRF-CEM leukemia = tested on: CCRF-CEM leukemia
HCT-116 colon = tested on: HCT-116 colon
A549 NSCLC = tested on: A549 NSCLC
COLO 205 colon = tested on: COLO 205 colon
OVCAR-3 ovarian = tested on: OVCAR-3 ovarian
ACHN renal = tested on: ACHN renal
PC-3 prostate = tested on: PC-3 prostate
SF-539 CNS = tested on: SF-539 CNS
BT-549 breast = tested on: BT-549 breast
LOX IMVI melanoma = tested on: LOX IMVI melanoma
NCI/ADR-RES ovarian = tested on: NCI/ADR-RES ovarian
MDA-MB-231 breast = tested on: MDA-MB-231 breast
MCF7 breast = tested on: MCF7 breast
SF-295 CNS = tested on: SF-295 CNS
SW-620 colon = tested on: SW-620 colon
SNB-19 CNS = tested on: SNB-19 CNS
NCI-H23 lung = tested on: NCI-H23 lung
K-562 leukemia = tested on: K-562 leukemia
KM12 colon = tested on: KM12 colon
SR leukemia = tested on: SR leukemia
RXF 393 renal = tested on: RXF 393 renal
A498 renal = tested on: A498 renal
SN12C renal = tested on: SN12C renal
SNB-75 CNS = tested on: SNB-75 CNS
M14 melanoma = tested on: M14 melanoma
SK-MEL-2 melanoma = tested on: SK-MEL-2 melanoma
SF-268 CNS = tested on: SF-268 CNS
EKVX NSCLC = tested on: EKVX NSCLC
786-0 renal = tested on: 786-0 renal
HCT-15 colon = tested on: HCT-15 colon
IGROV1 ovarian = tested on: IGROV1 ovarian
HL-60(TB) leukemia = tested on: HL-60(TB) leukemia
MOLT-4 leukemia = tested on: MOLT-4 leukemia
HT29 colon = tested on: HT29 colon
OVCAR-5 ovarian = tested on: OVCAR-5 ovarian
TK-10 renal = tested on: TK-10 renal
HS 578T breast = tested on: HS 578T breast
RPMI-8226 leukemia = tested on: RPMI-8226 leukemia
UACC-62 melanoma = tested on: UACC-62 melanoma
DU-145 prostate = tested on: DU-145 prostate
MALME-3M melanoma = tested on: MALME-3M melanoma
NCI-H460 lung = tested on: NCI-H460 lung
NCI-H226 lung = tested on: NCI-H226 lung
MDA-N = tested on: MDA-N

## CO[C@@H](C(=O)N1Cc2[nH]nc(NC(=O)c3ccc(N4CCN(C)CC4)cc3)c2C1)c1ccccc1
SK-MEL-5 melanoma
  GI50: 1.65 µM and 2.76 µM
  TGI: 12.1 µM and > 10 µM
T-47D breast
  GI50: 0.792 µM and 0.538 µM
  TGI: 69.3 µM and > 10 µM
MDA-MB-435
  GI50: 2.69 µM and 3.08 µM
  TGI: 17.4 µM and > 10 µM
UO-31 renal
  GI50: 9.33 µM and 3.67 µM
  TGI: 33.8 µM and > 10 µM
CAKI-1 renal
  GI50: 19.6 µM and > 10 µM
  TGI: > 91.4 µM
UACC-257 melanoma
  GI50: 0.613 µM and 1.06 µM
  TGI: 18.9 µM and > 10 µM
HOP-92 NSCLC
  GI50: 0.153 µM and 0.0639 µM
  TGI: 0.731 µM and 1.24 µM
OVCAR-8 ovarian
  GI50: 2.27 µM and 1.84 µM
  TGI: > 100 µM
NCI-H522 lung
  GI50: 0.469 µM and 0.163 µM
  TGI: 45.5 µM and > 10 µM
U251 CNS
  GI50: 2.16 µM and 1.51 µM
  TGI: > 50.1 µM
HOP-62 NSCLC
  GI50: 1.04 µM and 0.585 µM
  TGI: 19.3 µM and > 10 µM
OVCAR-4 ovarian
  GI50: 0.61 µM and 2.82 µM
  TGI: > 52.4 µM
SK-OV-3 ovarian
  GI50: 0.591 µM and 0.863 µM
  TGI: > 41.2 µM
HCC-2998 colon
  GI50: 0.525 µM and 0.503 µM
  TGI: 46 µM and > 10 µM
SK-MEL-28 melanoma
  GI50: 3.11 µM and 2.72 µM
  TGI: 20.9 µM and > 10 µM
CCRF-CEM leukemia
  TGI: > 100 µM
HCT-116 colon
  GI50: 0.117 µM and 0.0879 µM
  TGI: 6.67 µM and > 8.71 µM
A549 NSCLC
  GI50: 0.419 µM and 0.158 µM
  TGI: > 69.6 µM
COLO 205 colon
  GI50: 0.0483 µM and 0.0395 µM
  TGI: 1.03 µM and 0.625 µM
OVCAR-3 ovarian
  GI50: 0.866 µM and 1.13 µM
  TGI: > 87 µM
ACHN renal
  GI50: 4.97 µM and 6.66 µM
  TGI: > 69.6 µM
PC-3 prostate
  GI50: 1.53 µM and 2.53 µM
  TGI: 40.7 µM and > 10 µM
SF-539 CNS
  GI50: 0.459 µM and 0.105 µM
  TGI: 12 µM and 5.63 µM
BT-549 breast
  GI50: 0.809 µM and 1.39 µM
  TGI: 5.9 µM and > 10 µM
LOX IMVI melanoma
  GI50: 0.255 µM and 0.0825 µM
  TGI: 2.05 µM and 1.82 µM
NCI/ADR-RES ovarian
  GI50: > 100 µM
  TGI: > 100 µM
MDA-MB-231 breast
  GI50: 0.562 µM and 0.142 µM
  TGI: > 70.5 µM
MCF7 breast
  GI50: 0.104 µM and 0.0736 µM
  TGI: 23.1 µM and > 10 µM
SF-295 CNS
  GI50: 0.715 µM and 0.146 µM
  TGI: > 100 µM
SW-620 colon
  GI50: 0.314 µM and 0.129 µM
  TGI: 22.3 µM and > 10 µM
SNB-19 CNS
  GI50: 4.02 µM and 2.93 µM
  TGI: > 100 µM
NCI-H23 lung
  GI50: 0.764 µM and 0.609 µM
  TGI: 23.7 µM and > 10 µM
K-562 leukemia
  GI50: 0.106 µM and 0.0547 µM
  TGI: > 100 µM
KM12 colon
  GI50: 0.216 µM and 0.125 µM
  TGI: 7.09 µM and > 8.18 µM
SR leukemia
  GI50: 0.0569 µM and 0.0395 µM
  TGI: > 35.6 µM
RXF 393 renal
  GI50: 0.593 µM and 0.312 µM
  TGI: 3.72 µM and 2.09 µM
A498 renal
  GI50: 0.0696 µM and 0.317 µM
  TGI: 1.32 µM and 3.62 µM
SN12C renal
  TGI: > 100 µM
SNB-75 CNS
  GI50: 0.215 µM
  TGI: 1.66 µM
M14 melanoma
  GI50: 3.73 µM and 2.34 µM
  TGI: 23.4 µM and > 10 µM
SK-MEL-2 melanoma
  GI50: 4.33 µM and 6.86 µM
  TGI: 33.1 µM and > 10 µM
SF-268 CNS
  GI50: 1.06 µM and 0.889 µM
  TGI: 8.08 µM and 4.64 µM
EKVX NSCLC
  GI50: 1.73 µM and 1.89 µM
  TGI: 37.6 µM and > 10 µM
786-0 renal
  GI50: 2.55 µM and 2 µM
  TGI: 31.4 µM and > 10 µM
HCT-15 colon
  GI50: 18.8 µM and > 10 µM
  TGI: > 100 µM
IGROV1 ovarian
  GI50: 0.282 µM and 0.0624 µM
  TGI: 3.01 µM and 2.95 µM
HL-60(TB) leukemia
  GI50: 3.25 µM and 4.35 µM
  TGI: 28.3 µM and > 10 µM
MOLT-4 leukemia
  GI50: 12.6 µM and 2.3 µM
  TGI: > 81.1 µM
HT29 colon
  GI50: 0.713 µM and 0.658 µM
  TGI: 2.65 µM and 8.97 µM
OVCAR-5 ovarian
  GI50: 1.35 µM and 0.85 µM
  TGI: > 68.8 µM
TK-10 renal
  GI50: 3.28 µM and 2.78 µM
  TGI: 67.2 µM and > 10 µM
HS 578T breast
  GI50: 1.37 µM and 0.232 µM
  TGI: 7.92 µM and 0.859 µM
RPMI-8226 leukemia
  GI50: 7.04 µM and 5.81 µM
  TGI: > 52.5 µM
UACC-62 melanoma
  GI50: 0.548 µM and 0.482 µM
  TGI: 50.5 µM and > 10 µM
DU-145 prostate
  GI50: 2.02 µM and 1.93 µM
  TGI: 17.9 µM and > 10 µM
MALME-3M melanoma
  GI50: 0.509 µM and 4.41 µM
  TGI: 22.9 µM and > 10 µM
NCI-H460 lung
  GI50: 0.224 µM and 0.0997 µM
  TGI: 18 µM and > 10 µM
NCI-H226 lung
  GI50: 0.36 µM and 0.0804 µM
  TGI: 49.3 µM and > 8.91 µM

## CC[N+](C)(CC)CCNC(=O)C(O)(c1ccccc1)c1ccccc1
SK-MEL-5 melanoma
  TGI: > 100 µM
UO-31 renal
  TGI: > 100 µM
CAKI-1 renal
  TGI: > 100 µM
UACC-257 melanoma
  TGI: > 100 µM
HOP-92 NSCLC
  TGI: > 100 µM
OVCAR-8 ovarian
  TGI: > 100 µM
NCI-H522 lung
  TGI: > 100 µM
U251 CNS
  TGI: > 100 µM
HOP-62 NSCLC
  TGI: > 100 µM
OVCAR-4 ovarian
  TGI: > 100 µM
SK-OV-3 ovarian
  TGI: > 100 µM
HCC-2998 colon
  TGI: > 100 µM
SK-MEL-28 melanoma
  TGI: > 100 µM
CCRF-CEM leukemia
  TGI: > 100 µM
HCT-116 colon
  TGI: > 100 µM
A549 NSCLC
  TGI: > 100 µM
COLO 205 colon
  TGI: > 100 µM
OVCAR-3 ovarian
  TGI: > 100 µM
ACHN renal
  TGI: > 100 µM
PC-3 prostate
  TGI: > 100 µM
SF-539 CNS
  TGI: > 100 µM
BT-549 breast
  TGI: > 100 µM
LOX IMVI melanoma
  TGI: > 100 µM
NCI/ADR-RES ovarian
  TGI: > 100 µM
MCF7 breast
  TGI: > 100 µM
SF-295 CNS
  TGI: > 100 µM
SW-620 colon
  TGI: > 100 µM
SNB-19 CNS
  TGI: > 100 µM
NCI-H23 lung
  TGI: > 100 µM
K-562 leukemia
  TGI: > 100 µM
KM12 colon
  TGI: > 100 µM
SR leukemia
  TGI: > 100 µM
RXF 393 renal
  TGI: > 100 µM
SN12C renal
  TGI: > 100 µM
SNB-75 CNS
  TGI: > 100 µM
MDA-N
  TGI: > 100 µM
M14 melanoma
  TGI: > 100 µM
SF-268 CNS
  TGI: > 100 µM
EKVX NSCLC
  TGI: > 100 µM
786-0 renal
  TGI: > 100 µM
HCT-15 colon
  TGI: > 100 µM
IGROV1 ovarian
  TGI: > 100 µM
HL-60(TB) leukemia
  TGI: > 100 µM
MOLT-4 leukemia
  TGI: > 100 µM
HT29 colon
  TGI: > 100 µM
OVCAR-5 ovarian
  TGI: > 100 µM
TK-10 renal
  TGI: > 100 µM
RPMI-8226 leukemia
  TGI: > 100 µM
UACC-62 melanoma
  TGI: > 100 µM
DU-145 prostate
  TGI: > 100 µM
MALME-3M melanoma
  TGI: > 100 µM
NCI-H460 lung
  TGI: > 100 µM
NCI-H226 lung
  TGI: > 100 µM
